Calls of active or inactive are those of the source.
Assays:
[1] = target: Glycogen synthase kinase-3 alpha (Homo sapiens, UniProt P49840); assay: Inhibition of Human GSK-3 alpha Activity Measured in Biochemical System Using Microfluidics - 2063-06_Inhibitor_Dose_DryPowder_Activity. [Related pubchem assays (depositor defined):AID2709]
[2] = target: Glycogen synthase kinase-3 beta (Homo sapiens, UniProt P49841); assay: Inhibition of Human GSK-3 beta Activity Measured in Biochemical System Using Microfluidics - 2063-05_Inhibitor_Dose_DryPowder_Activity. [Related pubchem assays (depositor defined):AID2709]
Chain of Glycogen synthase kinase-3 beta (P49841 whole entry, the tested form may be a part): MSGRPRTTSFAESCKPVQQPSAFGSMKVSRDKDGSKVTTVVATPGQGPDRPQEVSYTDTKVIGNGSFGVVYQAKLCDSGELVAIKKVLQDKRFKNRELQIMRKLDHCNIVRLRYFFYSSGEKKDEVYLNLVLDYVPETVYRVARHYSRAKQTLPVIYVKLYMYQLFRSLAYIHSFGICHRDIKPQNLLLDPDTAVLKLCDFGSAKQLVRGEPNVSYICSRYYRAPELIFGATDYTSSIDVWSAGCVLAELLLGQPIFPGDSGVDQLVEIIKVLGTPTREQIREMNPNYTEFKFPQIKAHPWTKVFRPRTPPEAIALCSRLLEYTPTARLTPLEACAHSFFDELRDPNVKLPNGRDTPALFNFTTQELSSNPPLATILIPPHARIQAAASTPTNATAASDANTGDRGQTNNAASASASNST

[3] = target: T1, Carboxy-terminal domain RNA polymerase II polypeptide A small phosphatase 1 (Homo sapiens, UniProt Q9GZU7); assay: CTDSP1 inhibitors, concentration-response, biochemical, absorbance readout, ultra-high-throughput screen actives (AID 540297); format: functional
T1 sequence (Q9GZU7 whole entry): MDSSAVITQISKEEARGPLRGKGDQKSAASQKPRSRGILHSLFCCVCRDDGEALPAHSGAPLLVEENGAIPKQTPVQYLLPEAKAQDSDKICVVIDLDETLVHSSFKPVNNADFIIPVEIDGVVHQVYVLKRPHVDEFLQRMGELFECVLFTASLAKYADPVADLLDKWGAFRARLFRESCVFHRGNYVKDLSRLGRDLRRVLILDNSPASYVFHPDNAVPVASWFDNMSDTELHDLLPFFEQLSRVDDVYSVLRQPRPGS

[4] = target: DNA (cytosine-5)-methyltransferase 1 (Homo sapiens, UniProt P26358); assay: inhibition of DNA methylation by DNMT1 – biochemical, fluorescent molecular beacon, confirmation (AID 602386); format: functional
Chain of DNA (cytosine-5)-methyltransferase 1 (P26358 whole entry): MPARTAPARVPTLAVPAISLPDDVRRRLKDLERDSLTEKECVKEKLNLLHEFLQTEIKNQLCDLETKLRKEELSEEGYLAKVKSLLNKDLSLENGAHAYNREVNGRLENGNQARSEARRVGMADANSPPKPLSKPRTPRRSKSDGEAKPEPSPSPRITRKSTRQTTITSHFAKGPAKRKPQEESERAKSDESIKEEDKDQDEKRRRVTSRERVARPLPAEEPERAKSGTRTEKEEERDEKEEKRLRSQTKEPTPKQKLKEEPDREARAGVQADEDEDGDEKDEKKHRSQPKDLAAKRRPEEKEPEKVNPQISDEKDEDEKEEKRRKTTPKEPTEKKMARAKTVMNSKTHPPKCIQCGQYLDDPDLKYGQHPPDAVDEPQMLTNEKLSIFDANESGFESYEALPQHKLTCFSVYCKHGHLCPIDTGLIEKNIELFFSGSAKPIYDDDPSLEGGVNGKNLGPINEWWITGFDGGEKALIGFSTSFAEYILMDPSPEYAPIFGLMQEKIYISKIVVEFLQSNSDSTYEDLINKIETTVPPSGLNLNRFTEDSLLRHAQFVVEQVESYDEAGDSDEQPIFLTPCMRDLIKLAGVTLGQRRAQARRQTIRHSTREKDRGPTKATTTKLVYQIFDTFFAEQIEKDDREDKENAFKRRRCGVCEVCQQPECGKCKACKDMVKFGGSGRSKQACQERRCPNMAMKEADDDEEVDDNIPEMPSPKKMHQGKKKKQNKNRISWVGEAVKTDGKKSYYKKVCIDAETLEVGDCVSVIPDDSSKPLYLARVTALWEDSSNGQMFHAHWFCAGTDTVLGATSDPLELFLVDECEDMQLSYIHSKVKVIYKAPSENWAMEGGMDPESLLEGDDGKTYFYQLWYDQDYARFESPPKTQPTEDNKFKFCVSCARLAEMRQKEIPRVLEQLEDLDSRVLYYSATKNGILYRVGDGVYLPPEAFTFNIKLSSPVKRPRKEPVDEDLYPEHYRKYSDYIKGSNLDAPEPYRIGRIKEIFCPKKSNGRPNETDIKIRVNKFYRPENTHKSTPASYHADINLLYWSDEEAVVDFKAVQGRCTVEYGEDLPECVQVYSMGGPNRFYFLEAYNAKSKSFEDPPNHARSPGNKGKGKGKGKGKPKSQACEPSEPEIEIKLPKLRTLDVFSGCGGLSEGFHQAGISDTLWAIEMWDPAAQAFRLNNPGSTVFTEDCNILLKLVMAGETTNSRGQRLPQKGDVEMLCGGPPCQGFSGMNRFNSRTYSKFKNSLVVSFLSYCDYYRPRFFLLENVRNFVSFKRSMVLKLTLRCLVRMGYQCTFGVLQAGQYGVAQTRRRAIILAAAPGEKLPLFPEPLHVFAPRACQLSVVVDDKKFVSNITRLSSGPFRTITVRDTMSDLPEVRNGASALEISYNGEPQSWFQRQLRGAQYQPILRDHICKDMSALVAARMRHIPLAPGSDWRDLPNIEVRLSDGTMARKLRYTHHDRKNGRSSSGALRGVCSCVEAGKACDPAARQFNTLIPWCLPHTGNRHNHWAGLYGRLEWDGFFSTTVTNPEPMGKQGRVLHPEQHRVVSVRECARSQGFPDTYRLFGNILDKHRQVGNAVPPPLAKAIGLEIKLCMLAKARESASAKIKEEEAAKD

[5] = target: T2, Beta-adrenergic receptor kinase 1 (Homo sapiens, UniProt P25098); assay: blockers of aptamer binding to GRK2 – biochemical, flow cytometry beads, FAM-aptamer, powder set 1, dose response (AID 588720)
T2 sequence (P25098 whole entry): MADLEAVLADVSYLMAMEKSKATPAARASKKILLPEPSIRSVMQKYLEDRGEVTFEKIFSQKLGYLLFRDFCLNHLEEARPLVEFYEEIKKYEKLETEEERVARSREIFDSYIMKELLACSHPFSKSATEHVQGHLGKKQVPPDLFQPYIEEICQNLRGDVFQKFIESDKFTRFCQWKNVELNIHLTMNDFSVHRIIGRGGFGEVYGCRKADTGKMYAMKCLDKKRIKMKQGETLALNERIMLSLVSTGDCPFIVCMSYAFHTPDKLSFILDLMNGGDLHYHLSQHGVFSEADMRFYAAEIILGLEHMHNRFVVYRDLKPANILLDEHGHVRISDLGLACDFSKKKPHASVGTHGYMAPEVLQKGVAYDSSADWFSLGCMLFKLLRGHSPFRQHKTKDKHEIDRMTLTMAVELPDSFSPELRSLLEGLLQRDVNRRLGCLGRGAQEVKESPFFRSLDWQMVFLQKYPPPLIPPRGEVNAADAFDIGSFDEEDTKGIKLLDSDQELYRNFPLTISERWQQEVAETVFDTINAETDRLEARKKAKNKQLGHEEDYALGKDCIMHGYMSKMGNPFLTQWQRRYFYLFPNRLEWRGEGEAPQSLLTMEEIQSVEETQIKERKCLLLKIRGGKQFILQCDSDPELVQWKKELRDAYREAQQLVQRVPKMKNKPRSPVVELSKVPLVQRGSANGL

[6] = target: T2, Beta-adrenergic receptor kinase 1; assay: aptamer displacement from bead-bound GRK2 – biochemical, cherry pick 1, bead flow cytometry, dose response (AID 504500)
[7] = test system: CHO; assay: CHO cell viability loss, potency – luminescence, cytotoxicity control for TLR9-MyD88 binding inhibitor project, dose response (AID 588339); format: functional, cell-based, hamster; conditions: Cricetulus griseus;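 further: CHO cells stably coexpressing TLR9 and MyD88 fusions from primary screen; compound exposure lasted 48 hours before viability readout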
[8] = test system: INS1; assay: beta-cell survival under cytokine stress – INS-1E, ATP luminescence, dry powder, dose response (AID 488844); format: functional, cell-based; conditions: Rattus norvegicus
[9] = test system: INS1; assay: suppression of NO production in INS-1E cells – cell-based, Griess absorbance, dry powder, set 2, dose response (AID 488868); format: functional; conditions: Rattus norvegicus
[10] = test system: INS1; assay: INS-1E mitochondrial potential loss inhibitors – cell-based, JC-1 fluorescence, dry powder, set 2, dose response (AID 488867); format: functional; conditions: Rattus norvegicus
[11] = suppression of NO production in INS-1E cells – cell-based, Griess absorbance, dry powder, set 3, dose response (AID 488870); format: functional; conditions: Rattus norvegicus
[12] = target: DNA topoisomerase (Yersinia pestis, UniProt A0A2S9PM60); assay: Yersinia topoisomerase I cleavage product accumulation – biochemical, cherry-pick, dose response (AID 588525)
[13] = target: T3, Sentrin-specific protease 7 (Homo sapiens, UniProt Q9BQF6); assay: inhibition of human SENP7 cleavage activity – biochemical, luminescence, set 2, SAR follow-up (AID 588600); format: functional
T3 sequence (Q9BQF6 whole entry): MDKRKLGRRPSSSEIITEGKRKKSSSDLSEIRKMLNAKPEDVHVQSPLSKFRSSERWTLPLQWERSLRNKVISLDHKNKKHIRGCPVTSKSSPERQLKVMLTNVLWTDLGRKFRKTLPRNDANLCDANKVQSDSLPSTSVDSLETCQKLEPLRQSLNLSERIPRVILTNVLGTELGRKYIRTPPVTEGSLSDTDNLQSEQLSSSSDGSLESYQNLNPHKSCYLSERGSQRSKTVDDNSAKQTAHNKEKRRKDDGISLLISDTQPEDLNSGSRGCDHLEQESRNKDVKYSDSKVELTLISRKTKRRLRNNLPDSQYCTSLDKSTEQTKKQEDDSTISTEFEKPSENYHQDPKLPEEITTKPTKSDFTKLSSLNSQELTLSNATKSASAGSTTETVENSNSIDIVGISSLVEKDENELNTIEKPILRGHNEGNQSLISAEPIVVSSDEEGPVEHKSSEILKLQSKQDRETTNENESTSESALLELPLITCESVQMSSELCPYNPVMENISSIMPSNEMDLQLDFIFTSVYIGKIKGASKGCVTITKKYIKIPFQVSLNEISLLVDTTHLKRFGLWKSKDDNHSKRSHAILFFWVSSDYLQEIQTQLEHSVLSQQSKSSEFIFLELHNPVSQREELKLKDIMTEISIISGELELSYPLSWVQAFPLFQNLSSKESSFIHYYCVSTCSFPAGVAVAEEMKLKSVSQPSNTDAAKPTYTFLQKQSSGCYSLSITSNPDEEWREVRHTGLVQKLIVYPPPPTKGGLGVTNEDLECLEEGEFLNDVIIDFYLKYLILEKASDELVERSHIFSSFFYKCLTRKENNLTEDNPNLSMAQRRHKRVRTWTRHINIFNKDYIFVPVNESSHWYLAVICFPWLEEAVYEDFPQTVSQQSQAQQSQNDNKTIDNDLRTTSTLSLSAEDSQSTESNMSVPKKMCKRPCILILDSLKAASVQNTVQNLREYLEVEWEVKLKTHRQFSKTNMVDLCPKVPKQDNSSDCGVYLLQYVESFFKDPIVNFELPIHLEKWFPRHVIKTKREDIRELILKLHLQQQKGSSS

[14] = target: T4, Sentrin-specific protease 8 (Homo sapiens, UniProt Q96LD8); assay: inhibition of sentrin protease 8 – biochemical, luminescence, set 2, SAR follow-up (AID 588601); format: functional
T4 sequence (Q96LD8 whole entry): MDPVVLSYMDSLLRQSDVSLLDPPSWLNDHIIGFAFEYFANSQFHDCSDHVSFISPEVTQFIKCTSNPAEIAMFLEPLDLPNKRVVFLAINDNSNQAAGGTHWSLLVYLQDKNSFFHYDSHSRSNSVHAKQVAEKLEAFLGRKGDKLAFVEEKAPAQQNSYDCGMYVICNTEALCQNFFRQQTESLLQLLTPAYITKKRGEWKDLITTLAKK

[15] = target: T5, Caspase-3 (Homo sapiens, UniProt P42574); assay: SAR Analysis of small molecule inhibitors of Sentrin-specific proteases (SENPs) using a Caspase-3 Selectivity assay. [Related pubchem assays (depositor defined):AID2540, AID2599, AID434973, AID489001]; format: functional
T5 sequence (P42574 whole entry): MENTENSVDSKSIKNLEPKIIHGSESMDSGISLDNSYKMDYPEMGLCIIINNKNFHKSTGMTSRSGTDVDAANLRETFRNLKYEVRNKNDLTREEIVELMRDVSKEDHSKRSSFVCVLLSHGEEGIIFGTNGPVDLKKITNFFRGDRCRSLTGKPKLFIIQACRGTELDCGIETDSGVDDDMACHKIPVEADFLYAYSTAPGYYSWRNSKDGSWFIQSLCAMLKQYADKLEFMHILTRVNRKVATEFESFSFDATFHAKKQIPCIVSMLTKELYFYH

[16] = target: T3, Sentrin-specific protease 7; assay: inhibition of human SENP7 cleavage activity – biochemical, luminescence, SAR follow-up (AID 504497); format: functional
[17] = target: T4, Sentrin-specific protease 8; assay: inhibition of human SENP8 cleavage activity – biochemical, luminescence, SAR follow-up (AID 504501); format: functional
[18] = target: T6, Sentrin-specific protease 6 (Homo sapiens, UniProt Q9GZR1); assay: SAR Analysis of small molecule inhibitors of Sentrin-specific protease 6 (SENP6) using a Luminescent assay. [Related pubchem assays (depositor defined):AID2582, AID2599]; format: functional
T6 sequence (Q9GZR1 whole entry): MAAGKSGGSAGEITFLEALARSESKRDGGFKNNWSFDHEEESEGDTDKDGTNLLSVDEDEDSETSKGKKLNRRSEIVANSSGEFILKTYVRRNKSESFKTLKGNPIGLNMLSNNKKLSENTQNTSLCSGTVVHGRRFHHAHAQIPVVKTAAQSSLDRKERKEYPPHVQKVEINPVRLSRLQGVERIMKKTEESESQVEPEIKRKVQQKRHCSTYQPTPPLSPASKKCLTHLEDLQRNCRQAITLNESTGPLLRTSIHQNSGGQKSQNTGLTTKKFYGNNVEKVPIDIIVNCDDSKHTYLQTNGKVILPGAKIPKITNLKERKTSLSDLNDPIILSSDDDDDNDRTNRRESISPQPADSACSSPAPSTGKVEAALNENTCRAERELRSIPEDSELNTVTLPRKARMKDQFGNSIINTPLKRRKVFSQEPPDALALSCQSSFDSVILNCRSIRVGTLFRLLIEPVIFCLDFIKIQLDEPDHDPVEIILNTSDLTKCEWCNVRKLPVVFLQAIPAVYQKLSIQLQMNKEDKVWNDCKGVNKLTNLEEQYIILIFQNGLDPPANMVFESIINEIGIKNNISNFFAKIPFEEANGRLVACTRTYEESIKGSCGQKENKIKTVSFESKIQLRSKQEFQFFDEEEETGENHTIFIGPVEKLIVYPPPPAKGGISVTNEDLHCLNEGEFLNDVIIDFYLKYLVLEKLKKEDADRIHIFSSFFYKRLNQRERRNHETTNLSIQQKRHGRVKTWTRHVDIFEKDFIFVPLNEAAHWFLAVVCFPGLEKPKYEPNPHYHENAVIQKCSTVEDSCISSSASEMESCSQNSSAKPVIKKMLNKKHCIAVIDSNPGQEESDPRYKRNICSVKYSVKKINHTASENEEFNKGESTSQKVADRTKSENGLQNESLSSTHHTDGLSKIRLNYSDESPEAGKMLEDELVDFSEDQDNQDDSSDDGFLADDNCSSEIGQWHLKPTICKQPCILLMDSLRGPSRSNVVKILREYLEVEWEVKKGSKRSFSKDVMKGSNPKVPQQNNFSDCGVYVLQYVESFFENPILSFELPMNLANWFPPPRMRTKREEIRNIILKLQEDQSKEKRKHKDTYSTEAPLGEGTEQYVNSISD

[19] = target: DNA dC->dU-editing enzyme APOBEC-3A (Homo sapiens, UniProt P31941); assay: SAR analysis of small molecule inhibitors of APOBEC3A DNA Deaminase via a fluorescence-based single-stranded DNA deaminase assay.; format: functional; conditions: read-out: IC50_Mean
Chain of DNA dC->dU-editing enzyme APOBEC-3A (P31941 whole entry): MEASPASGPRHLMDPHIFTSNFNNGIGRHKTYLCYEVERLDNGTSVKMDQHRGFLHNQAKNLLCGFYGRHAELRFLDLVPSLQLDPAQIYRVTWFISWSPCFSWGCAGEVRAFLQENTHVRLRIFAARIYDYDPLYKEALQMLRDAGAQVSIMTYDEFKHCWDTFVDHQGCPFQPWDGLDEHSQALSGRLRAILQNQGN

[20] = target: DNA dC->dU-editing enzyme APOBEC-3G (Homo sapiens, UniProt Q9HC16); assay: inhibition of APOBEC3G ssDNA deamination – biochemical, fluorescence, single-stranded DNA substrate, SAR follow-up (AID 602136); format: functional; conditions: read-out: IC50_Mean
Chain of DNA dC->dU-editing enzyme APOBEC-3G (Q9HC16 whole entry): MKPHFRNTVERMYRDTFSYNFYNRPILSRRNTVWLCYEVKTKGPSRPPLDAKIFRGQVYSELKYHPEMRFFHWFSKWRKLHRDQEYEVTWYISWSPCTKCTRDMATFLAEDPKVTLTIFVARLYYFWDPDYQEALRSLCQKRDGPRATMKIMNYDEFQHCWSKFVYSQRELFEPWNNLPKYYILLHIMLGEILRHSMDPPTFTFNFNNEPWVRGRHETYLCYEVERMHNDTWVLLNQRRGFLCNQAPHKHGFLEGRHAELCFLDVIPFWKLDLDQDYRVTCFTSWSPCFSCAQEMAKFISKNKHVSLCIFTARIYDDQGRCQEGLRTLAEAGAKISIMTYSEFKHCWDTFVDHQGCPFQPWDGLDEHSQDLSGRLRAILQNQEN

[21] = THP-1 cell cytotoxicity, dose response, cytotoxicity control, set 3 (AID 504852); format: functional; conditions: Mycobacterium tuberculosis
[22] = THP-1 cell cytotoxicity, cytotoxicity control, set 4 (AID 504911); format: functional; conditions: Mycobacterium tuberculosis
[23] = Vero cell cytotoxicity, dose response, cytotoxicity control for M. tuberculosis growth inhibitor project, Vero cells, purified and synthesized compounds, set 4 (AID 504854); format: functional; conditions: Mycobacterium tuberculosis
[24] = target: Voltage-gated inwardly rectifying potassium channel KCNH2 (Homo sapiens, UniProt Q12809); conditions: Potency;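 further: confirmatory quantitative high-throughput screen measuring inhibition of hERG channel activity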
Chain of Voltage-gated inwardly rectifying potassium channel KCNH2 (Q12809 whole entry): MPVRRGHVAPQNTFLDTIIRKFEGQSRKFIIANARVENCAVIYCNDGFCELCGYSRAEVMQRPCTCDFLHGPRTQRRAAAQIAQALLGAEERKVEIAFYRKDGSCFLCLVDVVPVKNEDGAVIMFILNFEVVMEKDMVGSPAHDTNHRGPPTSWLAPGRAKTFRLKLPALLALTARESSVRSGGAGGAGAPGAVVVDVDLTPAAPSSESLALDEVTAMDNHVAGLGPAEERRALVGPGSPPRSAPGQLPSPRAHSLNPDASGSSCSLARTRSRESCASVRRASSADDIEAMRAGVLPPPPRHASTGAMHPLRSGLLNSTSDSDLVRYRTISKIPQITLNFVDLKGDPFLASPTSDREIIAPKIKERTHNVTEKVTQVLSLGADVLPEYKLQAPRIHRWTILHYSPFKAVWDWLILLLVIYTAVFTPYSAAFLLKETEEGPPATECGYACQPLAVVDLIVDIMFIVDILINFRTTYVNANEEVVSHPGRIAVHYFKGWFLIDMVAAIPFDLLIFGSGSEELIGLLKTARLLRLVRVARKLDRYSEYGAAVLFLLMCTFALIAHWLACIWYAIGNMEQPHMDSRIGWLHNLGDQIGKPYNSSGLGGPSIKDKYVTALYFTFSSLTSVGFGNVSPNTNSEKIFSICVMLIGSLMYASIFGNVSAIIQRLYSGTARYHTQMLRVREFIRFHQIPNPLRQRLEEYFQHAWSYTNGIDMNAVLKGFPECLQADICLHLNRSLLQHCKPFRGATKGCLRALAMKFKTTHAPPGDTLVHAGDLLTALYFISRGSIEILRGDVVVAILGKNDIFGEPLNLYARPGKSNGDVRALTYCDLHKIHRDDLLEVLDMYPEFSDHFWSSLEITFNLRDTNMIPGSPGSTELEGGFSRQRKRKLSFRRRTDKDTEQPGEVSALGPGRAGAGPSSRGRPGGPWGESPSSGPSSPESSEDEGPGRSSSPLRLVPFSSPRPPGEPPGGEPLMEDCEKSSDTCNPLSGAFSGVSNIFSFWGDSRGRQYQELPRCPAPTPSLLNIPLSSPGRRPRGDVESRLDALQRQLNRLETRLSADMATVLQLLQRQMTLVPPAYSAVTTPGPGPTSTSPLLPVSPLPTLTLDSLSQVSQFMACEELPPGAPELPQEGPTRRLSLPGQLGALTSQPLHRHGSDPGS

Chain of Glycogen synthase kinase-3 alpha (P49840 whole entry): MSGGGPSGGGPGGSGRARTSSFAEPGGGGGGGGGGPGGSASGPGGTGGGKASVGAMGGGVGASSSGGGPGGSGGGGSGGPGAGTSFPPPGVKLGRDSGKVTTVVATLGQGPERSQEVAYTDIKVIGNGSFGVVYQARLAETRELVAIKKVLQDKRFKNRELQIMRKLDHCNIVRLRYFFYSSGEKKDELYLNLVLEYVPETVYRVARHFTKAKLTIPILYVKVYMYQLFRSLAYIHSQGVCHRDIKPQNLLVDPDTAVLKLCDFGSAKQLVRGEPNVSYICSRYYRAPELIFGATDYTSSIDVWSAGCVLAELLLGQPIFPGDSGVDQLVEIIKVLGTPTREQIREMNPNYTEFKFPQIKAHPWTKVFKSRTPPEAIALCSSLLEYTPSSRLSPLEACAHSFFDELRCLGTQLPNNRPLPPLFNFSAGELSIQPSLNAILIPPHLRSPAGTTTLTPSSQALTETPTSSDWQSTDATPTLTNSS

## CCCn1nc(NC(=O)C(C)C)c2cc3cc(OC)ccc3nc21
[1]
  AC50: 38.5 µM (active)
[2]
  AC50: 3.25 µM (active)

## CCN(CC)c1ccc(NC(=O)CCS(=O)(=O)c2ccc(Br)cc2)c(C)c1
[3]
  IC50: 3.04 µM (active)
[4]
  IC50: 8.64 µM (active)
[5]
  EC50: 0.426 µM (active)
[6]
  EC50: 5.01 µM (active)

## Nc1ccc2nc(-c3ccccc3)cnc2c1
[7]
  IC50: > 49.7 µM (inactive)

## Cc1ccc(S(=O)(=O)N(C)C[C@@H]2Oc3c(NC(=O)Nc4cccc5ccccc45)cccc3C(=O)N([C@@H](C)CO)C[C@H]2C)cc1
[8]
  AC50: 31.7 µM (active)
[9]
  AC50: 69.6 µM (active)
[10]
  AC50: 48.3 µM (active)
[11]
  AC50: 32.7 µM (active)

## COc1cc2nc3n(c(=O)c2cc1OC)-c1cc2ccccc2cc1C(=O)NC3Cc1ccccc1 (centres undefined)
[12]
  AC50: 11.8 µM (active)

## Cc1cccc(-c2noc(/C=C/c3ccccc3)n2)c1
[13]
  IC50: 4.14 µM (active)
[14]
  IC50: 3.48 µM (active)
[15]
  IC50: 11 µM (active)
[16]
  IC50: 4.9 µM (active)
[17]
  IC50: > 99 µM (inactive)
[18]
  IC50: 17 µM (active)

## CCCCN1CCc2cc(/C=C3\C(=O)NC(=S)N(C4CCCCC4)C3=O)ccc21
[19]
  IC50: > 99 µM (inactive)
[20]
  IC50: > 99 µM (inactive)

## O=C(CSc1nc2c(c(=O)[nH]1)CCCC2)NC1CCCCC1
[21]
  CC50: > 100 µM (active)
[22]
  CC50: > 100 µM (active)
[23]
  CC50: > 100 µM (active)

## Cn1cc(C(=O)OCC2CCN(CCNS(C)(=O)=O)CC2)c2ccccc21
[24]
  AC50: 35.5 µM (inconclusive)
